From patent publication US10745382B2 (BRISTOL-MYERS SQUIBB COMPANY, priority 2015, dated 2020)

What follows are molecules tested against T1, PD-1/PD-L1 (Homo sapiens, UniProt Q9NZQ7) (assay: PD-1/PD-L1 Homogenous Time-Resolved Fluorescence (HTRF) binding assay). Details: PD-L1-His 10 nM, PD-1-Ig 20 nM; numeric IC50; read-out: Range or IC50.
T1 construct: made in house; host or cells: HEK293T
Method in brief: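 Read-out is time-resolved FRET between europium cryptate-labelled anti-Ig (1 nM final) and APC-labelled anti-His (20 nM final), both dispensed onto the binding mix. Assay buffer: dPBS containing 0.1% bovine serum albumin and 0.05% Tween-20.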

T1 sequence (Q9NZQ7 with tags, fused parts or gaps): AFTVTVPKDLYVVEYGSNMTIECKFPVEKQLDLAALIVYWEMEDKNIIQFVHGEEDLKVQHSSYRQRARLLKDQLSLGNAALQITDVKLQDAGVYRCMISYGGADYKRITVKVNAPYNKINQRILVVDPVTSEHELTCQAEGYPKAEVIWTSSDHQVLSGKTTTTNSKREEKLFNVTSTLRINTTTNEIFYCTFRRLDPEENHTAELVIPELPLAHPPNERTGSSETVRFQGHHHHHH

Row | IC50 [nM] | SMILES
1 | 1.9 | Cc1c(COc2cc(OCc3cncc(C#N)c3)c(CNC(CO)CO)cc2Cl)cccc1-c1cccc(OCCCN2CCCCC2)c1C [Example 2291, 5-((4-chloro-2-(((1,3-dihydroxypropan-2-yl)amino)methyl)-5-((2,2′-dimethyl-3′-(3-(piperidin-1-yl)propoxy)-[1,1′-biphenyl]-3-yl)methoxy)phenoxy)methyl)nicotinonitrile]
2 | 73 | Cc1c(COc2cc(OCc3cncc(C#N)c3)c(CN3CCCC[C@H]3C(=O)O)cc2Cl)cccc1-c1cccc(CN(C)CCN2CCS(=O)(=O)CC2)c1C [Example 4079, (S)-1-(5-chloro-2-((5-cyanopyridin-3-yl)methoxy)-4-((3′-(((2-(1,1-dioxidothiomorpholino)ethyl)(methyl)amino)methyl)-2,2′-dimethyl-[1,1′-biphenyl]-3-yl)methoxy)benzyl)piperidine-2-carboxylic Acid]

Same assay, conditions: PD-L1-His 10 nM, PD-1-Ig 20 nM; value given as range class; read-out: Range or IC50

Row | SMILES | IC50 [nM]
3 | Cc1c(COc2cc(OCc3cncc(C#N)c3)c(CN3CCCC[C@H]3C(=O)O)cc2Cl)cccc1-c1cccc(OCCCN2CCO[C@@H](CO)C2)c1C [Example 3047, (S)-1-(5-chloro-2-((5-cyanopyridin-3-yl)methoxy)-4-((3′-(3-((R)-2-(hydroxymethyl)morpholino)propoxy)-2,2′-dimethyl-[1,1′-biphenyl]-3-yl)methoxy)benzyl)piperidine-2-carboxylic Acid] | 0.21 to 10
4 | Cc1c(COc2cc(OCc3cncc(C#N)c3)c(CNC[C@H](O)CO)cc2Cl)cccc1-c1cccc(OCCCNC[C@H](O)CO)c1C [Example 2265, 5-((4-chloro-2-(((S)-2,3-dihydroxypropylamino)methyl)-5-((3′-(3-((S)-2,3-dihydroxypropylamino)propoxy)-2,2′-dimethylbiphenyl-3-yl)methoxy)phenoxy)methyl)nicotinonitrile] | 0.21 to 10
5 | Cc1c(COc2cc(OCc3cncc(S(C)(=O)=O)c3)c(CN[C@H](CO)C(=O)O)cc2Cl)cccc1-c1cccc(OCCCN2CC[C@@H](O)C2)c1 [Example 1023, (R)-2-((5-chloro-4-((3′-(3-((R)-3-hydroxypyrrolidin-1-yl)propoxy)-2-methyl-[1,1′-biphenyl]-3-yl)methoxy)-2-((5-(methylsulfonyl)pyridin-3-yl)methoxy)benzyl)amino)-3-hydroxypropanoic Acid] | 0.21 to 10

The remaining lines, values ahead:

Row | IC50 [nM] | SMILES
6 | 0.21 to 10 | Cc1c(COc2cc(OCc3cncc(C#N)c3)c(CN3CCCC[C@H]3C(=O)O)cc2Cl)cccc1-c1cccc(OCCCN2C[C@@H](O)C[C@H]2C(=O)O)c1C [Example 2240, (2S)-1-(4-((3′-(3-((2S,4S)-2-carboxy-4-hydroxypyrrolidin-1-yl)propoxy)-2,2′-dimethylbiphenyl-3-yl)methoxy)-5-chloro-2-((5-cyanopyridin-3-yl)methoxy)benzyl)piperidine-2-carboxylic Acid]
7 | 0.21 to 10 | Cc1c(COc2cc(OCc3cncc(C(N)=O)c3)c(CN3CCCC[C@H]3C(=O)O)cc2Cl)cccc1-c1cccc(OCCCN2CCC(CO)(C(=O)O)CC2)c1C [Example 1111, (S)-1-(2-((5-carbamoylpyridin-3-yl)methoxy)-4-((3′-(3-(4-carboxy-4-(hydroxymethyl)piperidin-1-yl)propoxy)-2,2′-dimethyl-[1,1′-biphenyl]-3-yl)methoxy)-5-chlorobenzyl)piperidine-2-carboxylic Acid]
8 | 0.21 to 10 | Cc1c(COc2cc(OCc3cncc(C#N)c3)c(CN[C@@H](CO)C(=O)O)cc2Cl)cccc1-c1cccc(OCCCN2CCC(O)(c3ccccc3)C2)c1C (stereo partly drawn) [Example 3039, (2S)-2-((5-chloro-2-((5-cyanopyridin-3-yl)methoxy)-4-((3′-(3-(3-hydroxy-3-phenylpyrrolidin-1-yl)propoxy)-2,2′-dimethyl-[1,1′-biphenyl]-3-yl)methoxy)benzyl)amino)-3-hydroxypropanoic Acid]
